Tests used:
[1] = test system: MIA PaCa-2; assay: Cytotoxicity against human MIAPaCa2 cells after 24 hrs by MTT assay; type: functional, cell-based; settings: MIA PaCa-2, 24 h
[2] = Cytotoxicity against human MV-3 cells after 24 hrs by MTT assay; type: functional, cell-based; settings: MV-3, 24 h

Row | Structure (SMILES) | IC50 [1] [µM] | IC50 [2] [µM]
1 | COc1c(O)c2c(c(O)c1C(C)C)C(=O)C[C@H]1C(C)(C)CCC[C@]21C [INUROYLEANOL] | > 80 | > 120
2 | CC(C)C1=C(O)C(=O)c2c(ccc3c2CCCC3(C)C)C1=O [DEOXYNEOCRYPTOTANSHINONE] | > 100 | > 150
3 | COc1c(C(C)C)cc2c(c1O)[C@@]1(C)CCCC(C)(C)[C@@H]1CC2=O [CRYPTOJAPONOL] | > 100 | > 80
4 | CC(C)C1=Cc2ccc3c(c2C(=O)C1=O)CCCC3(C)C [MILTIRONE] | 22.5 | –
5 | Cc1coc2c1C(=O)C(=O)c1c-2ccc2c(C)cccc12 [TANSHINONE I] | 10.5 | –
6 | CC(C)c1cc2c(cc1O)[C@@]1(C)CCCC(C)(C)[C@@H]1CC2=O [SUGIOL] | 17.9 | 34.1
7 | CC(C)C1=C(O)C(=O)C2=C(CC[C@H]3C(C)(C)CCC[C@]23C)C1=O [ROYLEANONE] | 32.5 | > 80
8 | Cc1coc2c1C(=O)C(=O)c1c-2ccc2c1CCCC2(C)C [TANSHINONE IIA] | 1.9 | –
9 | CC(C)=CCCc1c(C)ccc2c1C(=O)C=C(C(C)C)C2=O [SAHANDINONE] | 10.2 | –
10 | CC(C)C1=Cc2ccc3c(c2C(=O)C1=O)C(=O)CCC3(C)C | 29.9 | –
11 | CC[C@@]1(O)C(=O)OCc2c1cc1n(c2=O)Cc2cc3ccccc3nc2-1 [CAMPTOTHECIN] | 0.4 | –
12 | CC(C)c1cc2c(cc1O)[C@@]1(C)CCCC(C)(C)[C@@H]1CC2 [FERRUGINOL] | 25.9 | –
13 | COc1c(O)c(C(C)C)cc2c1[C@@]1(C)CCCC(C)(C)[C@@H]1CC2=O | 34.9 | 32.3
14 | CCO[C@@H]1C[C@H]2C(C)(C)CCC[C@]2(C)C2=C1C(=O)C(C(C)C)=C(O)C2=O | > 100 | > 80
15 | C[C@H]1COC2=C1C(=O)C(=O)c1c2ccc2c1CCCC2(C)C [CRYPTOTANSHINONE] | 5.8 | –
16 | CC(C)C1=C(O)C(=O)C2=C(C(=O)C[C@H]3C(C)(C)CCC[C@]23C)C1=O | 30.1 | 65.8
17 | COc1c(O)c(C(C)C)c(O)c2c1[C@@]1(C)CCCC(C)(C)[C@@H]1CC2=O [ORTHOSIPHONOL] | > 100 | > 80
18 | CC(=O)O[C@@H]1C[C@H]2C(C)(C)CCC[C@]2(C)C2=C1C(=O)C(C(C)C)=C(O)C2=O | 4.7 | 7.4
19 | CC(C)C1=C(O)C(=O)C2=C(C1=O)[C@H](O)C[C@H]1C(C)(C)CCC[C@]21C [HORMINONE] | 27.5 | 16.7
20 | COc1c(C(C)C)cc2c(c1O)[C@@]1(C)CCCC(C)(C)[C@@H]1[C@@H](O)C2 [IGUESTOL] | 41.3 | 65.9
21 | CC1=CCCc2c1ccc1c2C(=O)C(=O)c2c(C)coc2-1 | 5.6 | –
22 | CC(C)c1cc2ccc3c(c2c(O)c1O)C(=O)CCC3(C)C [MILTIODIOL] | 66.3 | –
